Experimental data: patent US5830855A, “Lipodepsipeptides as antifungal and fungicidal agents” (priority 1996, dated 1998)
Values after ≈ are worked out from the molar mass of the structure shown. Numbered stars: 1 amine (or outer) side, 2 acyl side, 3 side chain; on linkers, the order of the positions; unused ones are H or OH. Bridge positions count the residues as written; N and C are the ends. Square brackets hold non-standard residues; d marks the D form. Peptide text beside a SMILES is read from it. * marks the point of attachment. ξ: configuration not given here. Asp(3S-OH) = N[C@H](C(=O)O)[C@H](O)C(=O)O; Thr(4-Cl) = N[C@H](C(=O)O)[C@H](O)CCl; ξAsp(3ξ-OH) = NC(C(=O)O)C(O)C(=O)O; X3 = O=C(C(N[*:1])C(O)CCl)[*:2]; X1 = CCCCCCCCC[C@@H](O)CC(=O)*; X2 = CCCCCCCCCCCC(O)CC(=O)*; dDab = NCC[C@@H](N)C(=O)O; Dab = NCC[CH](N)C(=O)O; Orn = NCCC[CH](N)C(=O)O; hSer = N[CH](CCO)C(=O)O; Dhb = C/C=C(\N)C(=O)O

Key:
Format in all cases: cell-based
Aspergillus fumigatus = assay: Broth microdilution MIC; details: Table 1 (MICs), 16 isolates, 48 hr
Procedure: (§1) Medium: Liquid RPMI 1640 (RPMI) medium with L-glutamine and without sodium bicarbonate (Sigma Chemical Co., R-6504; St. Louis, Mo.) buffered with 0.165M MOPS (34.54 g/liter) was used for in vitro antifungal tests. The medium was adjusted to pH 7.0 with 10M NaOH and filter sterilized.
(§2) Lipodepsipeptide Dilutions: All stock drug solution concentrations were at least 10-fold higher than the highest concentration tested. AmB, ketoconazole, and the test compounds (SR-E, ST-B, and SS-A) were dissolved in sterile distilled water, 0.2N HCl, and 0.001N HCl, respectively. Each stock solution was diluted to 2× the highest concentration of drug tested with RPMI. Two-fold dilutions were made with RPMI medium.
(§3) Preparation of Inoculum Suspensions: On Sabouraud dextose agar (SDA; BBL, Becton and Dickinson and Co., Cockeysville, Md.) all isolates were subcultured at least twice before use to ensure purity and viability. Candida spp. and Saccharomyces cerevisiae were grown for 24 hr at 35° C. Isolates of Cryptococcus neoformans were grown for 48 hr at 35° C. Yeast cells from at least five 1-mm-diameter colonies were suspended in 5 ml of sterile 0.85% saline. The resulting suspension was vortexed for 15 sec. The turbidity of each mixed suspension was measured at 530 nm and adjusted to 1×10^6 to 5×10^6 CFU/ml by the NCCLS spectrophotometric method described by National Committee for Clinical Laboratory Standards. 1992. Reference method for broth dilution antifungal susceptibility testing of yeasts; proposed standard, NCCLS document M27-P (ISBN 1-56238-186-5). NCCLS, Villanova. The final transmission of each yeast suspension ranged from 85-87%.
(§4) Aspergillus fumigatus and Mucor spp. were grown for 1 wk at 35° C. The dermatophytes, Microsporum spp. and Trichophyton spp., were grown for two wk at 30° C. Fungal spores were washed from the plates of all good spore formers (A. fumigatus, Mucor spp., Microsporum canis and Trichophyton spp.) by placing 5 ml of 0.85% saline with 0.2% Tween 80 on the plates and mixing with an inoculating loop. The spore/mycelium suspension was drawn off with a pipette and allowed to settle for at least 5 min. For the poor spore-forming Microsporum audouinii, the procedure was the same except the spore/mycelial suspension was homogenized with a ground glass tissue homogenizer and then allowed to settle for at least 5 min. A small amount of the supernatant was transferred to 5 ml of sterile saline and vortexed. The stock suspensions of all filamentous fungi were measured at 530 nm and adjusted to 85-87% transmission. The concentration (1×10^6 to 5×10^6 CFU/ml) was determined by hemacytometer count or plate count on SDA. All stock suspensions were diluted 1000-fold with RPMI, or 2× the final desired test inocula. The 2× inoculum was diluted 1:1 when the wells were inoculated, and the desired inoculum size was achieved.
(§5) Broth Microdilution Test: Broth microdilution tests were performed using sterile, disposable, multiwell microdilution plates (96 round U-bottom wells) (Falcon 3077; Becton and Dickinson Labware, Lincoln Park, N.J.). The drugs (2× concentrations) were dispensed into the wells of rows number 1 to 10 of the microdilution plates in 100 μl volumes from highest drug concentration to lowest drug concentration. Each well was inoculated with 100 μl of the corresponding 2× concentrated fungal suspension. The wells of row 11 contained the inoculum with drug-free media as a positive growth control and the wells of row 12 contained uninoculated-drug-free medium as a sterility control.
(§6) Incubation and Scoring of MIC: All cultures were incubated without shaking at the temperature used during subculture. Incubation times were 48 hr for Candida spp., S. cerevisiae, A. fumigatus, and Mucor spp; 72 hr for C. neoformans; and 7 days for Microsporum and Trichophyton spp. […]

Candida albicans [1] = assay: Broth microdilution MIC; details: Table 1 (MICs); Candida albicans, 20 isolates; RPMI pH 7.0, 48 hr; Ktz read at score 2, others at score 0
Procedure: as §1, §2, §3, §4, §5, §6

Candida kefyr [2] = assay: Broth microdilution MIC; details: Table 1 (MICs), 1 isolate, 48 hr
Procedure: as §1, §2, §3, §4, §5, §6

Candida krusei [3] = assay: Broth microdilution MIC; details: Table 1 (MICs), 2 isolates, 48 hr
Procedure: as §1, §2, §3, §4, §5, §6

Candida lusitaniae [4] = assay: Broth microdilution MIC; details: Table 1 (MICs), 2 isolates, 48 hr
Procedure: as §1, §2, §3, §4, §5, §6

Candida parapsilosis [5] = assay: Broth microdilution MIC; details: Table 1 (MICs), 2 isolates, 48 hr
Procedure: as §1, §2, §3, §4, §5, §6

Candida rugosa [6] = assay: Broth microdilution MIC; details: Table 1 (MICs); Candida rugosa, 2 isolates; 48 hr
Procedure: as §1, §2, §3, §4, §5, §6

Candida tropicalis [7] = assay: Broth microdilution MIC; details: Table 1 (MICs); Candida tropicalis, 2 isolates; 48 hr
Procedure: as §1, §2, §3, §4, §5, §6

Cryptococcus neoformans [8] = assay: Broth microdilution MIC; details: for MIC range: Table 1 (MICs), Cryptococcus neoformans, 14 isolates, 72 hr
Procedure: as §1, §2, §3, §4, §5, §6

Microsporum spp. [9] = assay: Broth microdilution MIC; details: Table 1 (MICs), 2 isolates, 7 days
Procedure: as §1, §2, §3, §4, §5, §6

Saccharomyces cerevisiae [10] = assay: Broth microdilution MIC; details: Table 1 (MICs), 1 strain tested more than once (control ATCC 36375), 48 hr
Procedure: as §1, §2, §3, §4, §5, §6

Trichophyton spp. [11] = assay: Broth microdilution MIC; details: Table 1 (MICs), 3 isolates, 7 days
Procedure: as §1, §2, §3, §4, §5, §6

Candida albicans [12] = assay: Minimum Fungicidal Concentration (MFC); details: Table 2, 20 isolates, subculture on drug-free SDA 24 hr
Procedure: as §1, §2, §3, §4, §5, §6

Candida kefyr [13] = assay: Minimum Fungicidal Concentration (MFC); details: Table 2, 1 isolate, 24 hr
Procedure: as §1, §2, §3, §4, §5, §6

Candida krusei [14] = assay: Minimum Fungicidal Concentration (MFC); details: Table 2, 2 isolates, 24 hr
Procedure: as §1, §2, §3, §4, §5, §6

Candida lusitaniae [15] = assay: Minimum Fungicidal Concentration (MFC); details: Table 2, 2 isolates, 24 hr
Procedure: as §1, §2, §3, §4, §5, §6

Candida parapsilosis [16] = assay: Minimum Fungicidal Concentration (MFC); details: Table 2, 2 isolates, 24 hr
Procedure: as §1, §2, §3, §4, §5, §6

Candida rugosa [17] = assay: Minimum Fungicidal Concentration (MFC); details: Table 2, 2 isolates, 24 hr
Procedure: as §1, §2, §3, §4, §5, §6

Candida tropicalis [18] = assay: Minimum Fungicidal Concentration (MFC); details: Table 2, 2 isolates, 24 hr
Procedure: as §1, §2, §3, §4, §5, §6

Cryptococcus neoformans [19] = assay: Minimum Fungicidal Concentration (MFC); details: Table 2, 14 isolates, 48 hr
Procedure: as §1, §2, §3, §4, §5, §6

Microsporum spp. [20] = assay: Minimum Fungicidal Concentration (MFC); details: Table 2, 2 isolates, 7 d
Procedure: as §1, §2, §3, §4, §5, §6

Saccharomyces cerevisiae [21] = assay: Minimum Fungicidal Concentration (MFC); details: Table 2, 1 strain tested more than once, 24 hr
Procedure: as §1, §2, §3, §4, §5, §6

Trichophyton spp. [22] = assay: Minimum Fungicidal Concentration (MFC); details: Table 2, 3 isolates, 7 d
Procedure: as §1, §2, §3, §4, §5, §6

SMILES	MIC range (Aspergillus fumigatus) [µg/mL]	MIC range (Candida albicans [1]) [µg/mL]	MIC (μg/ml) range (Candida kefyr [2]) [µg/mL]	MIC (μg/ml) range (Candida krusei [3]) [µg/mL]	MIC range (Candida lusitaniae [4]) [µg/mL]	MIC range (Candida parapsilosis [5]) [µg/mL]	MIC range (Candida rugosa [6]) [µg/mL]	MIC (μg/ml) range (Candida tropicalis [7]) [µg/mL]	MIC range (Cryptococcus neoformans [8]) [µg/mL]	MIC range (Microsporum spp. [9]) [µg/mL]	MFC (μg/ml) range (Saccharomyces cerevisiae [10]) [µg/mL]	MIC range (Trichophyton spp. [11]) [µg/mL]	MFC (μg/ml) range (Candida albicans [12]) [µg/mL]	MFC (μg/ml) range (Candida kefyr [13]) [µg/mL]	MFC (μg/ml) range (Candida krusei [14]) [µg/mL]	MFC (μg/ml) range (Candida lusitaniae [15]) [µg/mL]	MFC (μg/ml) range (Candida parapsilosis [16]) [µg/mL]	MFC (μg/ml) range (Candida rugosa [17]) [µg/mL]	MFC (μg/ml) range (Candida tropicalis [18]) [µg/mL]	MFC (μg/ml) range (Cryptococcus neoformans [19]) [µg/mL]	also measured
C/C=C1\NC(=O)C(C(C)O)NC(=O)C(CCCN)NC(=O)C(CCO)NC(=O)CNC(=O)C(CCN)NC(=O)C(NC(=O)CC(O)CCCCCCCCCCC)COC(=O)C(C(O)CCl)NC(=O)C(C(O)C(=O)O)NC1=O (centres unmarked) [ST-B, Syringotoxin B] (X2-S[Dab]G[hSer][Orn]T[Dhb][ξAsp(3ξ-OH)][X3]; ester 1-C; configuration not given here)	6.25 to 25	3.2 to 12.5	3.2 (≈ 2.82 µM)	12.5 to 25	6.25 (≈ 5.5 µM)	6.25 to 12.5	3.2 to 25	3.2 (≈ 2.82 µM)	0.8 to 6.25	25 to 200	6.25 (≈ 5.5 µM)	25 to 200	3.2 to 12.5	3.2 (≈ 2.82 µM)	12.5 to 50	6.25 to 12.5	12.5 to 25	6.25 to 50	12.5 (≈ 11 µM)	0.8 to 12.5	MIC, one strain of C. neoformans (Cryptococcus neoformans [8]; one strain of C. neoformans, very sensitive to ST-B, somewhat resistant to AmB): 0.8 µg/mL; MFC (μg/ml) range (Microsporum spp. [20]): 25 to 200 µg/mL; MFC (μg/ml) range (Saccharomyces cerevisiae [21]): 12.5 to 25 µg/mL; MFC (μg/ml) range (Trichophyton spp. [22]): 25 to 200 µg/mL
C/C=C1\NC(=O)[C@H](Cc2ccccc2)NC(=O)[C@H](CCCN=C(N)N)NC(=O)[C@@H](CCN)NC(=O)[C@H](CCN)NC(=O)[C@@H](CO)NC(=O)[C@@H](NC(=O)C[C@H](O)CCCCCCCCC)COC(=O)[C@H]([C@H](O)CCl)NC(=O)[C@H]([C@H](O)C(=O)O)NC1=O [SR-E, Syringomycin-E] (X1-S[dS][Dab][dDab]RF[Dhb][Asp(3S-OH)][Thr(4-Cl)]; ester 1-C)	10 to 20	2.5 to 5	2.5 (≈ 2.04 µM)	10 (≈ 8.16 µM)	2.5 (≈ 2.04 µM)	2.5 (≈ 2.04 µM)	5 to 20	2.5 to 5	2.5 to 10	6.25 to 12.5	2.5 (≈ 2.04 µM)	3.1 to 6.25	2.5 to 5	2.5 (≈ 2.04 µM)	10 (≈ 8.16 µM)	2.5 to 5	2.5 (≈ 2.04 µM)	10 to 20	5 (≈ 4.08 µM)	2.5 to 10	MFC (μg/ml) range (Microsporum spp. [20]): 6.25 to 12.5 µg/mL; MFC (μg/ml) range (Saccharomyces cerevisiae [21]): 2.5 µg/mL (≈ 2.04 µM); MFC (μg/ml) range (Trichophyton spp. [22]): 6.25 to 25 µg/mL
